Test results: patent publication US20170165200A1, “COMPOSITION OF LIPID-BASED NANOPARTICLES FOR SMALL MOLECULES AND MACROMOLECULES” (University of North Texas Health Science Center, priority 2015, published 2017)

Assays:
[1] = mice; cited from earlier work
[2] = In vitro release of NGF by dialysis in 5% BSA-PBS; type: physicochemical; details: 5% BSA-PBS (pH 7), 37° C., first hour (n=4)
Experimental: In vitro release study. The release of NGF from NGF NPs (n=4) was studied using a dialysis method. The release medium was PBS (pH 7) containing 5% BSA to mimic the physiological condition in blood. Briefly, 200 μl NGF NPs and […] release medium were loaded into the dialysis tube (invco 300 kDa). Then the dialysis tube was placed into a 30 ml release medium and shaken at a 37° C. at 135 rpm. At the time intervals (1, 2, 4, 6, 8, 24, 48 and 72 hours), 100 μl of the release medium were withdrawn and replaced with an equal volume of fresh medium. The amounts of released NGF in the medium were analyzed by a NGF Sandwich ELISA kit. As a control, free NGF (n=4) was studied in parallel.

PC12 cells = assay: Neurite outgrowth study; type: cell-based
Experimental: Neurite Outgrowth Study. It is important to maintain protein's activity after the formulation of the NPs. Thus, the inventors chose to measure the bioactivity of NGF HDL-mimicking NPs in PC12 cells for neurite outgrowth. They pre-coated a 6-well plate with rat tail collagen type I. They seeded PC12 cells at a density of 10000 cells/well to the pre-coated 6-well plate overnight to allow cells to attach on the plates. They diluted free NGF (10 μg/ml) and NGF HDL-mimicking NPs (10 μg/ml) with the culture medium to prepare various concentrations at 0.5, 1, 5, 10, 50, and 100 ng/ml using half-half dilution. Then, they added 100 μl of sample into each well of the plate and culture for 4 days. At day 4 they changed the medium to fresh medium containing the corresponding treatment and then continue the treatment for another 3 days. At day 7, they visualized cells by an inverted light microscope and take the imaging from each well at random spots under 10× magnification.

[3] = rat, in vivo, iv; cited from earlier work

Compound | maximal tolerate dose of single dose [1] | NGF released [2] | neurite outgrowth (PC12 cells; day 7, concentration of NGF lower than 10 ng/ml) | neurite outgrowth (PC12 cells; day 7, treatment concentration higher than 10 ng/ml) | half-life [3]
CC(=O)O[C@@]12CO[C@@H]1C[C@H](O)[C@@]1(C)C(=O)[C@H](O)C3=C(C)[C@@H](OC(=O)[C@H](O)[C@@H](NC(=O)OC(C)(C)C)c4ccccc4)C[C@@](O)([C@@H](OC(=O)c4ccccc4)[C@H]21)C3(C)C [DTX, Docetaxel] | 15 to 33 mg/kg | – | – | – | –
free NGF: Recombinant human NGF (nerve growth factor) | – | 83% | neurite outgrowth cannot be observed clearly | neurite outgrowth was clearly observed | about 5.4 min
